The nature of series [1]: Solid stability test of the polymorph A (XRPD). In kind it is physicochemical. As for the experimental part: According to the “Guidelines for the Stability Test of Active Pharmaceutical Ingredients and Preparations” (Chinese Pharmacopoeia, 2015, Part IV, General Chapter 9001), the stability of the polymorph A of the compound of formula (I) was investigated under the conditions of high temperature (60° C., open), high humidity (room temperature/relative humidity of 92.5%, open), high temperature and high humidity (40° C., 75% RH; 60° C., 75% RH) and strong light (total illumination of 1.2×10^6 Lux·hr/near ultraviolet 200 w·hr/m^2, sealed).
15 mg of the polymorph A of the compound of formula (I) was weighed, placed on the bottom of a glass sample bottle, and spread into a thin layer. The sample placed under high temperature and high humidity was sealed with aluminum foil paper, and some small holes were pierced in the aluminum foil paper to ensure that the sample can fully contact with the ambient air; The samples placed under strong light conditions were sealed with screw caps. The samples placed under different conditions were sampled and tested (XRPD) on day 5 and day 10. The test results were compared with the initial test results on day 0.

The test system of series [2] is human multiple myeloma cells MM.1S xenograft (CDX). In words: In vivo pharmacodynamic study in MM.1S xenograft (CDX) model. As for the experimental part:
CB-17 SCID mice, female, 6 weeks to 8 weeks old, weight of about 17 grams to 20 grams. The mice were kept in a special pathogen-free environment and in a single ventilated cage (4 mice per cage). All cages, bedding and water were disinfected before use. All animals had free access to standard certified commercial laboratory food. A total of 64 mice purchased from Beijing Vital River Co., Ltd. were used for study. 0.2 mL of 5×10^6 MM.1S cells were subcutaneously inoculated on the right back of each mouse for tumor growth. The experiment was performed when the average tumor volume reached about 100 cubic millimeters to 150 cubic millimeters.
In vivo selective experiments were performed on CB-17 SCID mice implanted subcutaneously with human multiple myeloma cells MM.1S xenograft (CDX). The polymorph A of the compound of formula (I) was formulated with a mixed solution of 5% of dimethyl sulfoxide and 95% of 10% hydroxypropyl-β-cyclodextrin into a formulation to be administered orally for 5 days and stopped for 2 days. Ixazomib was administered once on the first day and fourth day of each week, respectively. The tumor volume was measured with a two-dimensional caliper twice a week, and the volume was measured in cubic millimeters and calculated by the following formula: V=0.5 a*b^2, in which a and b were the long diameter and short diameter of the tumor, respectively. The anti-tumor efficacy was determined by dividing the average tumor increase volume of animals treated with the compound by the average tumor increase volume of untreated animals.

The nature of series [3]: Solid stability test of the polymorph A (XRPD). In kind it is physicochemical. The note with it: High temperature and high humidity (40° C., 75% RH; 60° C., 75% RH), 1 month.

Take `O=C(NO)c1ccc(CNC(=O)c2ccc(C3(c4ccc(F)cc4)CCCO3)cn2)cc1` (centres unmarked): the Polymorph entry is “Polymorph A” in series [1] (Day 0, initial (XRPD)); “Polymorph A” in series [1] (High humidity (room temperature/relative humidity of 92.5%, open), Day 5); “Polymorph A” in series [1] (High humidity (room temperature/relative humidity of 92.5%, open), Day 10); “Polymorph A” in series [1] (High temperature (60° C., open), Day 5); “Polymorph A” in series [1] (High temperature (60° C., open), Day 10); “Polymorph A” in series [1] (High temperature and high humidity (40° C., 75% RH; 60° C., 75% RH), Day 10). The Polymorph result was “Polymorph A” in series [1] (Strong light (5000 lx, sealed), Day 5); “Polymorph A” in series [1] (Strong light (5000 lx, sealed), Day 10); “Polymorph A” in series [3]. Moreover, in series [1] (high temperature, high humidity, high temperature and high humidity, and strong light), the “Solid stability (conclusion)” value is “good stability”. Further, the “Stability (general statement)” value in series [1] (light, heat and humidity, technical effects statement) is “stable, less affected by light, heat and humidity”. Moreover, the Tumor volume is recorded as 134 mm^3 in series [2] (75 mg/kg oral, administration for 5 days and drug withdrawal for 2 days, Day 0); 165 mm^3 in series [2] (75 mg/kg oral, administration for 5 days and drug withdrawal for 2 days, Day 3); 319 mm^3 in series [2] (75 mg/kg oral, administration for 5 days and drug withdrawal for 2 days, Day 5); 466 mm^3 in series [2] (75 mg/kg oral, administration for 5 days and drug withdrawal for 2 days, Day 7); 753 mm^3 in series [2] (75 mg/kg oral, administration for 5 days and drug withdrawal for 2 days, Day 10); 1006 mm^3 in series [2] (75 mg/kg oral, administration for 5 days and drug withdrawal for 2 days, Day 12). Moreover, the Tumor volume in series [2] (75 mg/kg oral, administration for 5 days and drug withdrawal for 2 days, Day 14) was determined as 1532 mm^3. Also, the “Efficacy in vivo (general statement)” value in series [2] (technical effects statement) was “good efficacy in vivo”.

As for `CC(C)C[C@H](NC(=O)CNC(=O)c1cc(Cl)ccc1Cl)B(O)O` [Ixazomib, reference compound], the Tumor volume stood at 134 mm^3 in series [2] (Ixazomib 4 mg/kg, twice a week, Day 0); 157 mm^3 in series [2] (Ixazomib 4 mg/kg, twice a week, Day 3); 193 mm^3 in series [2] (Ixazomib 4 mg/kg, twice a week, Day 5); 331 mm^3 in series [2] (Ixazomib 4 mg/kg, twice a week, Day 7); 634 mm^3 in series [2] (Ixazomib 4 mg/kg, twice a week, Day 10); 835 mm^3 in series [2] (Ixazomib 4 mg/kg, twice a week, Day 12). The Tumor volume in series [2] (Ixazomib 4 mg/kg, twice a week, Day 14) amounted to 1257 mm^3.
